Among the test systems are BT-549 breast; HOP-92 NSCLC; HS 578T breast; TK-10 renal; RXF 393 renal; DU-145 prostate; UACC-257 melanoma; SNB-19 CNS; MCF7 breast; OVCAR-4 ovarian.
Common to all, as to experiment: DTP human tumour cell line panel, 48 h

Molecules are shown by their SMILES.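 1) Cells in 96-well plates. 2) Compound, 48 h, 5 concentrations. 3) Linear interpolation between surrounding doses. 4) Unreached endpoint = highest concentration. Abbreviation: GI50, concentration required for 50% inhibition of growth. The concentration for full growth arrest is given as TGI.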 Bounds are passed on as bounds.

What is called GI50 is the concentration giving 50% growth inhibition. As a reminder, the TGI is the concentration giving total growth inhibition. The low end stands for greater sensitivity of the cells, the high end for lower sensitivity of the cells.

Consider `C=C1C(=O)O[C@H]2C[C@@H]1CC/C(C)=C/CC/C(C)=C/CC[C@@]2(C)O`, for which the GI50 is 24.2 µM with BT-549 breast; 19500 nM with HOP-92 NSCLC; 48 µM with HS 578T breast; 21.5 µM in the test with TK-10 renal; over 100000 nM in the test on RXF 393 renal; 45.3 µM with DU-145 prostate. For the same molecule, the GI50 is over 100 µM with UACC-257 melanoma, over 100 µM in the test with SNB-19 CNS, 37300 nM in the test on MCF7 breast and over 100 µM with OVCAR-4 ovarian. Moreover, the TGI in the test with BT-549 breast is 59.9 µM; in the test with HOP-92 NSCLC it was 42.7 µM; with HS 578T breast, over 100 µM; in the test with TK-10 renal, 67.7 µM; in the test with RXF 393 renal, over 100 µM; in the test on DU-145 prostate, over 100 µM. For the same molecule, the TGI with UACC-257 melanoma, in the test with SNB-19 CNS, with MCF7 breast and in the test on OVCAR-4 ovarian was over 100 µM each time.
Consider `Cc1nc(-c2nc(-c3ccc(OC(F)(F)F)cc3)no2)nn1Cc1cccc(N2CCC(S(C)(=O)=O)CC2)c1`, for which the GI50 in the test on BT-549 breast is 1.07 µM; with HOP-92 NSCLC it was 28900 nM; in the test with HS 578T breast, over 36.9 µM; in the test on TK-10 renal it was 4.41 µM; with RXF 393 renal it was 5880 nM; in the test on DU-145 prostate, over 42.8 µM. Moreover, the GI50 in the test with UACC-257 melanoma is 0.286 µM; in the test on SNB-19 CNS, 8.75 µM; in the test on MCF7 breast, 13.6 nM; in the test with OVCAR-4 ovarian it was under 0.0137 µM. Moreover, the TGI in the test on BT-549 breast is 38.6 µM; in the test with HOP-92 NSCLC, over 89 µM; in the test with HS 578T breast, over 82.1 µM; in the test on TK-10 renal it was over 100 µM; with RXF 393 renal it was 44.4 µM; with DU-145 prostate it was over 100 µM. Besides, the TGI in the test on UACC-257 melanoma is over 86.6 µM; in the test on SNB-19 CNS, 95.4 µM; in the test on MCF7 breast, 48.6 µM; in the test with OVCAR-4 ovarian it was over 90.6 µM.
With `CC[C@@H](C(=O)[C@H](C)[C@H](O)[C@@H](C)[C@H]1O[C@H]([C@@H](CC)C(=O)N(CC)CC)CC[C@H]1C)C1O[C@]2(C=C[C@@H](O)[C@]3(CC[C@@](C)([C@H]4CC[C@](O)(CC)[C@H](C)O4)O3)O2)[C@H](C)C[C@@H]1C` (stereo not given in full), the GI50 was 3.33 µM in the test on BT-549 breast; 1450 nM in the test with HOP-92 NSCLC; 2.9 µM in the test with HS 578T breast; 3.35 µM in the test with TK-10 renal; 2060 nM in the test on RXF 393 renal; 3.91 µM with DU-145 prostate. The GI50 with UACC-257 melanoma is 3.07 µM; in the test with SNB-19 CNS, 3.24 µM; in the test on MCF7 breast it was 2610 nM; in the test on OVCAR-4 ovarian, 3.04 µM. The TGI with BT-549 breast was 14.8 µM; in the test with HOP-92 NSCLC, 5.43 µM; in the test with HS 578T breast it was 13.8 µM; with TK-10 renal, 26.7 µM; with RXF 393 renal it was 5.87 µM; with DU-145 prostate, 14.9 µM. Further, the TGI was 12.4 µM in the test with UACC-257 melanoma, 16.8 µM in the test with SNB-19 CNS, 10.1 µM in the test with MCF7 breast and 11.3 µM in the test on OVCAR-4 ovarian.
`CCN1C(=O)N(CC)C2C1NN=c1s/c(=C\c3ccco3)c(=O)n12` (stereo not given): the GI50 in the test with BT-549 breast was 0.791 µM; with HOP-92 NSCLC, 349 nM; with HS 578T breast, 0.459 µM; in the test with TK-10 renal it was 19.7 µM; with RXF 393 renal it was 558 nM; in the test on DU-145 prostate, 0.703 µM. For the same molecule, the GI50 is over 100 µM in the test on UACC-257 melanoma, 0.741 µM in the test with SNB-19 CNS, 361 nM in the test on MCF7 breast and 4.24 µM with OVCAR-4 ovarian. Besides, the TGI is over 100 µM with BT-549 breast; over 100 µM in the test with HOP-92 NSCLC; over 100 µM in the test with HS 578T breast; over 100 µM with TK-10 renal; over 23.4 µM in the test with RXF 393 renal; over 100 µM with DU-145 prostate. For the same molecule, the TGI in the test on UACC-257 melanoma, with SNB-19 CNS, in the test on MCF7 breast and in the test on OVCAR-4 ovarian was over 100 µM in each case.
For the molecule `COc1cc2ncnc(Nc3cccc(Cl)c3F)c2cc1OC(=O)N1CCN(C)C[C@H]1C`, the GI50 in the test with BT-549 breast is over 42.2 µM; with HOP-92 NSCLC, 14200 nM; in the test with HS 578T breast it was 21 µM; in the test on TK-10 renal it was 0.18 µM; in the test on RXF 393 renal, over 34400 nM; in the test on DU-145 prostate, 7.35 µM. For the same molecule, the GI50 was over 41.1 µM with UACC-257 melanoma, over 44.8 µM in the test with SNB-19 CNS, over 39000 nM with MCF7 breast and over 44.5 µM with OVCAR-4 ovarian. Besides, the TGI is over 67.2 µM with BT-549 breast; over 54.8 µM in the test on HOP-92 NSCLC; over 60.8 µM in the test on HS 578T breast; 20 µM with TK-10 renal; over 50.8 µM in the test with RXF 393 renal; over 100 µM in the test with DU-145 prostate. In addition, the TGI in the test with UACC-257 melanoma is over 59.2 µM; in the test with SNB-19 CNS, over 100 µM; in the test with MCF7 breast, over 77.3 µM; with OVCAR-4 ovarian it was over 79.1 µM.
`c1ccc2cc(NCNc3ccc4ccccc4c3)ccc2c1`: the TGI with BT-549 breast is 53.2 µM; in the test with HOP-92 NSCLC, 26.6 µM; with HS 578T breast it was over 100 µM; in the test with TK-10 renal, over 67.6 µM; in the test with RXF 393 renal it was 29.9 µM; in the test on DU-145 prostate, 27.4 µM. The TGI is 20.9 µM with UACC-257 melanoma, over 100 µM in the test with SNB-19 CNS, 25.6 µM in the test with MCF7 breast and 26.6 µM in the test on OVCAR-4 ovarian.
`N/C(=N/N=C/c1ccccc1)N/N=C\c1ccccc1`: the GI50 in the test with BT-549 breast was 7.2 µM; in the test with HOP-92 NSCLC it was 2520 nM; with HS 578T breast it was 3.73 µM; with TK-10 renal, 10.7 µM; in the test on RXF 393 renal, 2460 nM; in the test with DU-145 prostate it was 5.54 µM. In addition, the GI50 with UACC-257 melanoma is 7.5 µM; in the test on SNB-19 CNS, over 100 µM; in the test with MCF7 breast, 3400 nM; with OVCAR-4 ovarian, 19.6 µM. The TGI was 46.4 µM in the test on BT-549 breast; 42.2 µM in the test on HOP-92 NSCLC; 42.5 µM in the test with HS 578T breast; over 100 µM with TK-10 renal; 8.48 µM with RXF 393 renal; 92.7 µM with DU-145 prostate. For the same molecule, the TGI in the test with UACC-257 melanoma was 27.6 µM; in the test on SNB-19 CNS, over 100 µM; in the test on MCF7 breast it was over 100 µM; in the test on OVCAR-4 ovarian, over 100 µM.
On to `N=N/C(=C\c1c(O)[nH]c2ccccc12)c1ccccc1`, for which the TGI in the test with BT-549 breast is 62.3 µM; in the test with HOP-92 NSCLC, over 100 µM; with HS 578T breast, 44.4 µM; in the test with TK-10 renal, over 100 µM; in the test with RXF 393 renal, 62.6 µM; in the test with DU-145 prostate it was over 100 µM. The TGI with UACC-257 melanoma is over 100 µM; in the test with SNB-19 CNS, over 92.9 µM; in the test on MCF7 breast, over 100 µM; in the test with OVCAR-4 ovarian it was over 100 µM.
As for `C[C@@H](NC(=O)/C(C#N)=C/c1ccc([N+](=O)[O-])cc1)c1ccccc1`, the GI50 in the test with BT-549 breast is 1.75 µM; with HOP-92 NSCLC it was 1890 nM; in the test on HS 578T breast it was 5.92 µM; with TK-10 renal, 5.07 µM; in the test with RXF 393 renal, 1620 nM; in the test with DU-145 prostate it was 2.07 µM. Moreover, the GI50 was 2.38 µM in the test with UACC-257 melanoma, 2.52 µM with SNB-19 CNS, 2410 nM with MCF7 breast and 2.15 µM in the test on OVCAR-4 ovarian. The TGI in the test with BT-549 breast is 3.55 µM; in the test on HOP-92 NSCLC it was 5.96 µM; in the test with HS 578T breast, over 32.9 µM; in the test with TK-10 renal it was 12.1 µM; in the test on RXF 393 renal it was 3.04 µM; in the test with DU-145 prostate it was 4.33 µM. The TGI in the test with UACC-257 melanoma was 7.09 µM; with SNB-19 CNS, 7.31 µM; with MCF7 breast, 7.65 µM; in the test on OVCAR-4 ovarian it was 5.95 µM.
In the case of `COc1ccc2c(O)c(/C=C3\N=Nc4ccccc43)oc2c1C[C@@H]1CCNC[C@H]1F`, the GI50 with BT-549 breast is 12.8 µM; in the test on HOP-92 NSCLC it was 13300 nM; with HS 578T breast, 10.3 µM; with TK-10 renal it was 15 µM; in the test on RXF 393 renal, 1660 nM; in the test with DU-145 prostate, 11.2 µM. Besides, the GI50 in the test on UACC-257 melanoma is 16.2 µM; with SNB-19 CNS it was 9.29 µM; in the test on MCF7 breast, 3440 nM; in the test on OVCAR-4 ovarian, 11.4 µM. For the same molecule, the TGI in the test on BT-549 breast is 26.1 µM; in the test on HOP-92 NSCLC, 29.5 µM; in the test on HS 578T breast, 28.7 µM; with TK-10 renal it was 29.4 µM; with RXF 393 renal, 3.17 µM; in the test on DU-145 prostate, 23.7 µM. The TGI in the test on UACC-257 melanoma was determined as 32 µM; with SNB-19 CNS, 28.2 µM; in the test with MCF7 breast it was 19.5 µM; with OVCAR-4 ovarian, 26.6 µM.
Consider `CC1=NN(c2ccc(S(=O)(=O)O)cc2)C(=O)/C1=C/c1ccc(Cl)cc1`, for which the TGI in the test on BT-549 breast, in the test with HOP-92 NSCLC, with HS 578T breast, with TK-10 renal, with RXF 393 renal and in the test on DU-145 prostate was over 100 µM each time. The TGI in the test on UACC-257 melanoma, in the test on SNB-19 CNS, in the test on MCF7 breast and in the test on OVCAR-4 ovarian was over 100 µM throughout.
Take `CCCCCCCCCCCCSC1=C(Cl)C(=O)C(OC)=C(OC)C1=O`: the GI50 in the test with BT-549 breast is 1.2 µM; with HOP-92 NSCLC it was 2670 nM; in the test with HS 578T breast, 2.76 µM; in the test with TK-10 renal it was 2.24 µM; in the test with RXF 393 renal it was 4510 nM; with DU-145 prostate it was 11.2 µM. Besides, the GI50 in the test with UACC-257 melanoma was 3.62 µM; in the test with SNB-19 CNS, 3.64 µM; in the test with MCF7 breast, 417 nM; in the test with OVCAR-4 ovarian, 3.81 µM. The total growth inhibition concentration (TGI) was determined as 9.35 µM in the test on BT-549 breast; 16.3 µM with HOP-92 NSCLC; 7.96 µM in the test on HS 578T breast; 24.6 µM in the test with TK-10 renal; 23.1 µM with RXF 393 renal; 31.5 µM in the test on DU-145 prostate. For the same molecule, the TGI in the test on UACC-257 melanoma was 27.6 µM; in the test on SNB-19 CNS, 15 µM; in the test with MCF7 breast, 7.12 µM; in the test with OVCAR-4 ovarian, 26.6 µM.

The record behind these values is PubChem BioAssay (NCI).
